Key:
Assay type in all cases: biochemical
JAK2 = JAK2 (Homo sapiens (Human), UniProt O60674); assay: JAK kinase assay (HTRF), JAK2; details: catalytic domain, ATP at Km (4 μM)
Procedure: (§1) Human baculovirus-expressed JAK1, 2, 3 and TYK2 were purchased from Carna Biosciences, Inc. All four purified enzymes contain only the catalytic domain. JAK1 (aa 850-1154) and TYK2 (aa 871-1187) are expressed with an N-terminally fused GST-tag, and JAK2 and JAK3 with an N-terminally fused His-tag.
(§2) Inhibition of phosphorylation of a synthetic peptide was measured in an HTRF-based assay using the TK substrate-Biotin from the Cisbio HTRFKinEASE TK kit. First, 2 μl of TK solution (TK substrate-biotin in kinase buffer [1× enzymatic buffer from HTRFKinEASE TK kit, 1 mM DTT]) is added to a plate containing 1 μl prediluted compound (final assay concentration DMSO: 0.75%). Then, 5 μl kinase-ATP mix (prepared in kinase buffer) is added to the wells and the plates are incubated at RT for 20-30 min. For all four kinases a concentration of ATP that corresponded to the Km for ATP was used. The final concentrations of buffers, substrate, kinase and ATP were: JAK1: 50 mM Hepes buffer pH 7.0, 0.01% BSA, 10 mM MgCl2, 1 mM DTT, 7 μM ATP, 50 nM SEB, 1 μM TK Substrate-Biotin and 5 ng JAK1; JAK2: 50 mM Hepes buffer pH 7.0, 0.01% BSA, 5 mM MgCl2, 1 mM DTT, 4 μM ATP, 1 μM TK Substrate-Biotin and 0.1 ng JAK2; JAK3: 50 mM Hepes buffer pH 7.0, 0.01% BSA, 5 mM MgCl2, 1 mM DTT, 2 μM ATP, 1 μM TK Substrate-Biotin and 0.3 ng JAK3; TYK2: 50 mM Hepes buffer pH 7.0, 0.01% BSA, 5 mM MgCl2, 1 mM DTT, 13 μM ATP, 50 nM SEB, 1 μM TK Substrate-Biotin and 0.8 ng TYK2. Thereafter, the kinase reaction is stopped by adding 4 μl detection mix (final concentrations: 50 mM Hepes buffer pH 7.0, 0.01% BSA, 0.8 M KF, 20 mM EDTA, 42 nM Streptavidin-XL665 and 1:400 STK Ab Cryptate) and the plates are incubated overnight in the dark. The HTRF signal is read using an Envision plate reader.

JAK1 = JAK1 (Homo sapiens (Human), UniProt P23458); assay: JAK kinase assay (HTRF), JAK1; details: catalytic domain, ATP at Km (7 μM)
Procedure: as §1, §2

TYK2 = TYK2 (Homo sapiens (Human), UniProt P29597); assay: JAK kinase assay (HTRF), TYK2; details: catalytic domain, ATP at Km (13 μM)
Procedure: as §1, §2
(§3) In Table 1 selected JAK kinase inhibitory activities are listed along with analytical tR and observed M+H^+ data (UPLC-MS method 7).

JAK3 = JAK3 (Homo sapiens (Human), UniProt P52333); assay: JAK kinase assay (HTRF), JAK3; details: catalytic domain, ATP at Km (2 μM)
Procedure: as §1, §2, §3

Chain of JAK3 (P52333 822-1111): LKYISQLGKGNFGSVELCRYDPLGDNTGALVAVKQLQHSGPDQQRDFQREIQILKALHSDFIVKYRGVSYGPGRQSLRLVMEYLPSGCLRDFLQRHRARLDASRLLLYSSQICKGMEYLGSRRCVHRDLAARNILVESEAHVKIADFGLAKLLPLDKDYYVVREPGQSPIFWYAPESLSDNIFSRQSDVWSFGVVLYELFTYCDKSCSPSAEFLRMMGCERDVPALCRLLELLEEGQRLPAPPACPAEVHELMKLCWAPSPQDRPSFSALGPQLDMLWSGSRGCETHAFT
Chain of JAK2 (O60674 849-1124): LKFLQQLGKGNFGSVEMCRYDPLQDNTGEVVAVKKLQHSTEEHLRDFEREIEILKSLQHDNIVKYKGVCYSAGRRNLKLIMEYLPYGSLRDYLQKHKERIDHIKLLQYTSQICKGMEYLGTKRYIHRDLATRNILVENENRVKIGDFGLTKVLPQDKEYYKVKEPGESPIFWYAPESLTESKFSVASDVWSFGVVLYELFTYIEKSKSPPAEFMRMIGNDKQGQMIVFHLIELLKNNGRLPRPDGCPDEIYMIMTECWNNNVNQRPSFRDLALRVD
Chain of JAK1 (P23458 850-1154): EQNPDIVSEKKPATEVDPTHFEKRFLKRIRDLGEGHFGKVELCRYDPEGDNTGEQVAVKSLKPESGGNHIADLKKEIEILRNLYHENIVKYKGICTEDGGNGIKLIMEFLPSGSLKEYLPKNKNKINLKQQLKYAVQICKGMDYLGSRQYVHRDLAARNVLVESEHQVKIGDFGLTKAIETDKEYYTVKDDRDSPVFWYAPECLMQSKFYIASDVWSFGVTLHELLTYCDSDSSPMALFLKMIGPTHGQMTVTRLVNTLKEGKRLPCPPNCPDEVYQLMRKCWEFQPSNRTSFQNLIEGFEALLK
Chain of TYK2 (P29597 871-1187): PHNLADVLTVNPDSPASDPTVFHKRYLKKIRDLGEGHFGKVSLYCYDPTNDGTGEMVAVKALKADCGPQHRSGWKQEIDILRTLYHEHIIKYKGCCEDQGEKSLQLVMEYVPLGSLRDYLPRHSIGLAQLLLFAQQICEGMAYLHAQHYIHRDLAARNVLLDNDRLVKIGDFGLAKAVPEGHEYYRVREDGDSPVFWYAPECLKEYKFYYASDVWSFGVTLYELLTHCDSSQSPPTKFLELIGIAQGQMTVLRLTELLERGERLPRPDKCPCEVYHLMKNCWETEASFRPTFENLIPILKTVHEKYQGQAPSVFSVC

| Compound | EC50 (JAK2) [nM] | EC50 (JAK1) [nM] | EC50 (TYK2) [nM] | EC50 (JAK3) [nM] |
| --- | --- | --- | --- | --- |
| COc1cc(CNC(=O)[C@H]2CCN(c3ncnc4[nH]ccc34)CC23CC3)ccc1C#N [Example 93, (8S)-N-[(4-cyano-3-methoxy-phenyl)methyl]-5-(7H-pyrrolo[2,3-d]pyrimidin-4-yl)-5-azaspiro[2.5]octane-8-carboxamide] | 29.3 | 8.5 | 118 | 74.1 |
| Cc1ccc([C@H](O)[C@H](C)NC(=O)[C@H]2CCN(c3ncnc4[nH]ccc34)CC23CC3)cc1 [Example 73, (8S)-N-[(1S,2S)-2-hydroxy-1-methyl-2-(p-tolyl)ethyl]-5-(7H-pyrrolo[2,3-d]pyrimidin-4-yl)-5-azaspiro[2.5]octane-8-carboxamide] | 8.3 | 6.1 | 171 | 30.9 |
| O=C(N[C@H](CO)C(=O)OC1CCCC1)[C@H]1CCN(c2ncnc3[nH]ccc23)CC12CC2 [Example 96, cyclopentyl (2R)-3-hydroxy-2-[[(8S)-5-(7H-pyrrolo[2,3-d]pyrimidin-4-yl)-5-azaspiro[2.5]octane-8-carbonyl]amino]propanoate] | 28.7 | 8.7 | 250 | 59.2 |
| COc1ccc(CNC(=O)C2CCN(c3ncnc4[nH]ccc34)CC23CC3)cc1 (stereo not drawn) [Example 90, N-[(4-methoxyphenyl)methyl]-5-(7H-pyrrolo[2,3-d]pyrimidin-4-yl)-5-azaspiro[2.5]octane-8-carboxamide] | 19.6 | 8.2 | 288 | 34.5 |
| Cc1cc([C@@H](O)[C@H](C)NC(=O)[C@H]2CCN(c3ncnc4[nH]ccc34)CC23CC3)ncc1F [Example 133, (8S)-N-[(1S,2S)-2-(5-fluoro-4-methyl-2-pyridyl)-2-hydroxy-1-methyl-ethyl]-5-(7H-pyrrolo[2,3-d]pyrimidin-4-yl)-5-azaspiro[2.5]octane-8-carboxamide] | 37.5 | 27.3 | 375 | 148 |
| COc1cc(C#N)ccc1[C@H](C)NC(=O)[C@H]1CCN(c2ncnc3[nH]ccc23)CC12CC2 [Example 97, (8S)-N-[(1S)-1-(4-cyano-2-methoxy-phenyl)ethyl]-5-(7H-pyrrolo[2,3-d]pyrimidin-4-yl)-5-azaspiro[2.5]octane-8-carboxamide] | 36 | 8.7 | 315 | 226 |
| O=C(N[C@@H](CO)c1ccc(F)cc1CO)[C@H]1CCN(c2ncnc3[nH]ccc23)CC12CC2 [Example 100, (8S)-N-[(1R)-1-[4-fluoro-2-(hydroxymethyl)phenyl]-2-hydroxy-ethyl]-5-(7H-pyrrolo[2,3-d]pyrimidin-4-yl)-5-azaspiro[2.5]octane-8-carboxamide] | 37.3 | 9.1 | 248 | 71.9 |
| O=C(OCc1ccccc1)[C@H](CO)NC(=O)[C@H]1CCN(c2ncnc3[nH]ccc23)CC12CC2 [Example 138, Benzyl (2S)-3-hydroxy-2-[[(8S)-5-(7H-pyrrolo[2,3-d]pyrimidin-4-yl)-5-azaspiro[2.5]octane-8-carbonyl]amino]propanoate] | 112 | 38.2 | 1100 | 90.9 |
| C[C@@H](NC(=O)C1CCN(c2ncnc3[nH]ccc23)CC12CC2)c1ccccc1 (stereo partly drawn) [Example 136, N-[(1R)-1-phenylethyl]-5-(7H-pyrrolo[2,3-d]pyrimidin-4-yl)-5-azaspiro[2.5]octane-8-carboxamide] | 55.1 | 33.8 | 1460 | 111 |
| NS(=O)(=O)c1cccc(CNC(=O)C2CCN(c3ncnc4[nH]ccc34)CC23CC3)c1 (stereo not drawn) [Example 55, 5-(7H-pyrrolo[2,3-d]pyrimidin-4-yl)-N-[(3-sulfamoylphenyl)methyl]-5-azaspiro[2.5]octane-8-carboxamide] | 18.5 | 3.7 | 141 | 13.4 |
| CCc1cc(C#N)ccc1[C@@H](C)NC(=O)[C@H]1CCN(c2ncnc3[nH]ccc23)CC12CC2 [Example 121, (8S)-N-[(1R)-1-(4-cyano-2-ethyl-phenyl)ethyl]-5-(7H-pyrrolo[2,3-d]pyrimidin-4-yl)-5-azaspiro[2.5]octane-8-carboxamide] | 44.7 | 15.3 | 289 | 141 |
| C[C@@H](NC(=O)[C@H]1CCN(c2ncnc3[nH]ccc23)CC12CC2)[C@@H](O)c1ccc(C#N)cc1 [Example 146, (8S)-N-[(1R,2S)-2-(4-cyanophenyl)-2-hydroxy-1-methyl-ethyl]-5-(7H-pyrrolo[2,3-d]pyrimidin-4-yl)-5-azaspiro[2.5]octane-8-carboxamide] | 188 | 67.7 | 1840 | 266 |
| O=C(NCC1(CO)CC(F)(F)C1)[C@H](O)CNC(=O)[C@H]1CCN(c2ncnc3[nH]ccc23)CC12CC2 [Example 129, (8S)-N-[(2R)-3-[[3,3-difluoro-1-(hydroxymethyl)cyclobutyl]methylamino]-2-hydroxy-3-oxo-propyl]-5-(7H-pyrrolo[2,3-d]pyrimidin-4-yl)-5-azaspiro[2.5]octane-8-carboxamide] | 37.6 | 21.2 | 385 | 41.1 |
| O=C(NCc1ccc(F)cc1)C1CCN(c2ncnc3[nH]ccc23)CC12CC2 (stereo not drawn) [Example 53, N-[(4-fluorophenyl)methyl]-5-(7H-pyrrolo[2,3-d]pyrimidin-4-yl)-5-azaspiro[2.5]octane-8-carboxamide] | 8.9 | 3.6 | 106 | 20.8 |
| O=C(N[C@H](CO)C(=O)OCC1(CO)CCC1)[C@H]1CCN(c2ncnc3[nH]ccc23)CC12CC2 [Example 98, [1-(hydroxymethyl)cyclobutyl]methyl (2R)-3-hydroxy-2-[[(8S)-5-(7H-pyrrolo[2,3-d]pyrimidin-4-yl)-5-azaspiro[2.5]octane-8-carbonyl]amino]propanoate] | 15 | 8.8 | 177 | 44.3 |
| O=C(NCc1ccncc1)C1CCN(c2ncnc3[nH]ccc23)CC12CC2 (stereo not drawn) [Example 85, N-(4-pyridylmethyl)-5-(7H-pyrrolo[2,3-d]pyrimidin-4-yl)-5-azaspiro[2.5]octane-8-carboxamide] | 28.7 | 7.1 | 798 | 42.8 |
| COc1cc(C#N)ccc1CNC(=O)[C@H]1CCN(c2ncnc3[nH]ccc23)CC12CC2 [Example 71, (8S)-N-[(4-cyano-2-methoxy-phenyl)methyl]-5-(7H-pyrrolo[2,3-d]pyrimidin-4-yl)-5-azaspiro[2.5]octane-8-carboxamide] | 14.2 | 5.8 | 121 | 63.1 |
| O=C(NCCc1ccccc1)C1CCN(c2ncnc3[nH]ccc23)CC12CC2 (stereo not drawn) [Example 114, N-phenethyl-5-(7H-pyrrolo[2,3-d]pyrimidin-4-yl)-5-azaspiro[2.5]octane-8-carboxamide] | 37 | 11.7 | 858 | 64.8 |
| CC(CO)(NC(=O)C1CCN(c2ncnc3[nH]ccc23)CC12CC2)c1ccccc1 (stereo not drawn) [Example 118, N-(2-hydroxy-1-methyl-1-phenyl-ethyl)-5-(7H-pyrrolo[2,3-d]pyrimidin-4-yl)-5-azaspiro[2.5]octane-8-carboxamide] | 24.3 | 13.1 | 832 | 77.7 |
| N#CCC1(CNC(=O)C2CCN(c3ncnc4[nH]ccc34)CC23CC3)CC1 (stereo not drawn) [Example 112, N-[[1-(cyanomethyl)cyclopropyl]methyl]-5-(7H-pyrrolo[2,3-d]pyrimidin-4-yl)-5-azaspiro[2.5]octane-8-carboxamide] | 32.7 | 11.3 | 518 | 46 |
| NS(=O)(=O)c1ccc(CNC(=O)C2CCN(c3ncnc4[nH]ccc34)CC23CC3)cc1 (stereo not drawn) [Example 33, 5-(7H-pyrrolo[2,3-d]pyrimidin-4-yl)-N-[(4-sulfamoylphenyl)methyl]-5-azaspiro[2.5]octane-8-carboxamide] | 5 | 1.9 | 28.9 | 6 |

— patent US10799507B2, “5-(7H-pyrrolo[2,3-d]pyrimidin-4-yl)-5-azaspiro[2.5]octane-8-carboxylic acid derivatives as novel JAK kinase inhibitors” (LEO Pharma A/S, priority 2017, dated 2020)
